Measurements from patent US20250127696A1, “COMPOSITION FOR PREVENTING OR IMPROVING SKIN-AGING CONTAINING A THYMOL ESTER-BASED COMPOUND” (AMOREPACIFIC CORPORATION, priority 2023, published 2025).

Legend:
Format in all cases: cell-based, human
[1] = system: melanocytes; test: Predicted transcriptome age (RNA-age) of melanocytes; details: 10 ppm, 24 hours, vs untreated control; RNAAgeCalc on FPKM data, skin tissue; FIG. 2
Method: (§1) Melanocytes were purchased from Cascade Biologics as cells cultured in the foreskin of newborn African-American males, and cultured using Medium254 medium mixed with human melanocyte growth supplement (Life technologies).
RNA was extracted from melanocytes treated with 10 ppm of Melasolv for 24 hours using TRIzol reagent (Life technologies). This RNA was used to prepare a library using the Illumina TruSeq Stranded Total RNA Library Prep kit (Illumina, San Diego, CA, USA), and then RNA-sequencing was performed using the NovaSeq 6000 platform (Illumina).
Thereafter, a model for predicting age based on approximately 16,000 gene expression values of RNA-seq data was applied to measure the RNA-age of the untreated control melanocytes (—in the graph of FIG. 2) and the RNA-age of the melanocytes treated with Melasolv. Specifically, the RNA-age used RNAAgeCalc package, which can calculate transcriptome age from RNAseq data. Among the transcriptome data, FPKM data was entered as input and skin tissue was entered as an argument for calculation. • (RNAAgeCalc pakage: https://bioconductor.org/packages/release/bioc/html/RNAAgeCalc.html, • Ren X, Kuan P F (2020). “A multi-tissue transcriptional age calculators.” PLOS ONE, 15(8),-20. doi: 10.1371/journal.pone.0237006)

[2] = system: melanocytes; test: Observation of cell morphology after UVB-induced senescence; details: UVB 5 mJ/cm^2 twice at 24-hour intervals, then treated and incubated 2 weeks; FIG. 3
Method: as §1
Melanocytes were irradiated with 5 mJ/cm^2 of UVB twice at 24-hour intervals using a 1 UVB UV irradiator (Bio-Sun), and then treated with Melasolv and incubated for 2 weeks. A photograph of the cells is taken using an optical microscope (ECLIPSE TS100 from NIKON), and the shape of the cells is examined. Referring to FIG. 3, when treated with ultraviolet (UVB) that induce cellular senescence (Chr UVB; Chronic UVB in FIG. 3), it could be confirmed that the skin cells were flattened or enlarged, as shown by three spots that were slightly larger than the others in the middle of the photograph.

[3] = system: β-galactosidase in melanocytes; test: beta-galactosidase assay (senescence staining) after UVB; details: UVB 5 mJ/cm^2 twice at 24-hour intervals, then treated and incubated 2 weeks; vs UVB only; FIG. 4
Method: as §1
Melanocytes were irradiated with 5 mJ/cm^2 of UVB twice at 24-hour intervals using a 1 UVB UV irradiator (Bio-Sun), and then treated with Melasolv and incubated for 2 weeks. To measure the degree of cellular senescence, a beta-galactosidase assay was performed using a beta-gal staining kit from Life technologies. A photograph was taken using an optical microscope (ECLIPSE TS100 from NIKON), and then the number of cells with stained beta-galactosidase was counted.

COc1cc(/C=C/C(=O)Oc2cc(C)ccc2C(C)C)cc(OC)c1OC [Melasolv, (5-methyl-2-propan-2-ylphenyl) (E)-3-(3,4,5-trimethoxyphenyl) prop-2-enoate]
decrease of RNA-age of melanocytes [1]: about 4 years
change in cell morphology (flattened or enlarged cells) [2]: reduces changes in skin cells caused by UVB
β-galactosidase (number of stained cells) [3]: reduced to a statistically significant degree
